What was measured:
Settings in all cases: scale 0 to 100
[1] = test system: galium (catchweed bedstraw, Galium aparine); assay: Test D postemergence; assay type: in vivo
Procedure, shortened: (§1)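 Seeds were sown in silt loam for preemergence treatment, or in peat/vermiculite medium for postemergence sprays at 2–18 cm (1- to 4-leaf stage). Test chemicals were in a non-phytotoxic solvent with surfactant. After 14–21 days in a controlled environment, plants were visually rated against controls on a 0–100 scale (0 no effect, 100 complete control).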

[2] = test system: wild radish (Raphanus raphanistrum); assay: Test D postemergence; assay type: in vivo
Procedure, shortened: as §1

[3] = test system: speedwell (bird's-eye speedwell, Veronica persica); assay: Test D postemergence; assay type: in vivo
Procedure, shortened: as §1

[4] = test system: windgrass (Apera spica-venti); assay: Test D postemergence; assay type: in vivo
Procedure, shortened: as §1

[5] = test system: spring barley (Hordeum vulgare); assay: Test D postemergence; assay type: in vivo
Procedure, shortened: as §1

[6] = test system: Italian ryegrass (Lolium multiflorum); assay: Test D postemergence; assay type: in vivo
Procedure, shortened: as §1

[7] = test system: wild oat (Avenafatua); assay: Test D preemergence; assay type: in vivo, Avena fatua
Description: (§2) Seeds of plant species selected from bluegrass (annual bluegrass, Poa annua), blackgrass (Alopecurus myosuroides), canarygrass (Phalaris minor), chickweed (common chickweed, Stellaria media), cutleaf geranium (Geranium dissectum), galium (catchweed bedstraw, Galium aparine), downy bromegrass (Bromus tectorum), field poppy (Papaver rhoeas), field violet (Viola arvensis), green foxtail (Setaria viridis), deadnettle (henbit deadnettle, Lamium amplexicaule), Italian ryegrass (Lolium multiflorum), kochia (Kochia scoparia), lambsquarters (Chenopodium album), oilseed rape (Brassica napus), pigweed (Amaranthus retroflexus), chamomile (scentless chamomile, Matricaria inodora), Russian thistle (Salsola kali), speedwell (bird's-eye speedwell, Veronica persica), spring barley (Hordeum vulgare), spring wheat (Triticum aestivum), wild buckwheat (Polygonum convolvulus), wild mustard (Sinapis arvensis), wild oat (Avenafatua), wild radish (Raphanus raphanistrum), windgrass (Apera spica-venti), winter barley (Hordeum vulgare), and winter wheat (Triticum aestivum) were planted into a silt loam soil and treated preemergence with test chemicals formulated in a non-phytotoxic solvent mixture which included a surfactant.
(§3) At the same time, these species were planted in pots containing Redi-Earth® planting medium (Scotts Company, 14111 Scottslawn Road, Marysville, Ohio 43041) comprising spaghnum peat moss, vermiculite, wetting agent and starter nutrients and treated with postemergence applications of the test chemicals formulated in the same manner. Plants ranged in height from 2 to 18 cm (1- to 4-leaf stage). Treated plants and controls were maintained in a controlled growth environment for 14 to 21 days after which time all species were compared to controls and visually evaluated. Plant response ratings, summarized in Table D, are based on a scale of 0 to 100 where 0 is no effect and 100 is complete control. A dash (-) response means no test result.

[8] = test system: galium (catchweed bedstraw, Galium aparine); assay: Test D preemergence; assay type: in vivo
Description: as §2, §3

[9] = test system: spring wheat (Triticum aestivum); assay: Test D preemergence; assay type: in vivo
Description: as §2, §3

[10] = test system: winter barley (Hordeum vulgare); assay: Test D preemergence; assay type: in vivo
Description: as §2, §3

[11] = test system: wild radish (Raphanus raphanistrum); assay: Test D preemergence; assay type: in vivo
Description: as §2, §3

[12] = test system: speedwell (bird's-eye speedwell, Veronica persica); assay: Test D preemergence; assay type: in vivo
Description: as §2, §3

[13] = test system: Russian thistle (Salsola kali); assay: Test D preemergence; assay type: in vivo
Description: as §2, §3

[14] = test system: windgrass (Apera spica-venti); assay: Test D preemergence; assay type: in vivo
Description: as §2, §3

[15] = test system: field violet (Viola arvensis); assay: Test D preemergence; assay type: in vivo
Description: as §2, §3

[16] = test system: Italian ryegrass (Lolium multiflorum); assay: Test D preemergence; assay type: in vivo
Description: as §2, §3

[17] = test system: green foxtail (Setaria viridis); assay: Test D preemergence; assay type: in vivo
Description: as §2, §3

[18] = test system: wild mustard (Sinapis arvensis); assay: Test D preemergence; assay type: in vivo
Description: as §2, §3

[19] = test system: blackgrass (Alopecurus myosuroides); assay: Test D preemergence; assay type: in vivo
Description: as §2, §3

[20] = test system: cutleaf geranium (Geranium dissectum); assay: Test D preemergence; assay type: in vivo
Description: as §2, §3

[21] = test system: wild oat (Avenafatua); assay: Test D postemergence; assay type: in vivo, Avena fatua
Description: as §2, §3

Fc1cnc(Oc2c(Br)cccc2Oc2ncc(Cl)cn2)nc1 [Compound 22]
Plant response rating, Galium ([1]; 16 g ai/ha): 70 | Plant response rating, Galium ([1]; 31 g ai/ha): 60 | Plant response rating, Galium ([1]; 62 g ai/ha): 75 | Plant response rating, Galium ([1]; 125 g ai/ha): 85 | Plant response rating, Radish, Wild ([2]; 16 g ai/ha): 25 | Plant response rating, Radish, Wild ([2]; 31 g ai/ha): 35 | Plant response rating, Radish, Wild ([2]; 62 g ai/ha): 90 | Plant response rating, Radish, Wild ([2]; 125 g ai/ha): 90 | Plant response rating, Speedwell ([3]; 16 g ai/ha): 30 | Plant response rating, Speedwell ([3]; 31 g ai/ha): 40 | Plant response rating, Speedwell ([3]; 62 g ai/ha): 75 | Plant response rating, Speedwell ([3]; 125 g ai/ha): 90 | Plant response rating, Windgrass ([4]; 16 g ai/ha): 5 | Plant response rating, Windgrass ([4]; 31 g ai/ha): 10 | Plant response rating, Windgrass ([4]; 62 g ai/ha): 25 | Plant response rating, Windgrass ([4]; 125 g ai/ha): 35 | Plant response rating, Barley, Spring ([5]; 16 g ai/ha): 5 | Plant response rating, Barley, Spring ([5]; 31 g ai/ha): 10 | Plant response rating, Barley, Spring ([5]; 62 g ai/ha): 15 | Plant response rating, Barley, Spring ([5]; 125 g ai/ha): 20 | Plant response rating, Ryegrass, Italian ([6]; 16 g ai/ha): 15 | Plant response rating, Ryegrass, Italian ([6]; 31 g ai/ha): 20 | Plant response rating, Ryegrass, Italian ([6]; 62 g ai/ha): 25 | Plant response rating, Ryegrass, Italian ([6]; 125 g ai/ha): 35 | Plant response rating, Oat, Wild ([7]; 16 g ai/ha): 5 | Plant response rating, Oat, Wild ([7]; 31 g ai/ha): 10 | Plant response rating, Oat, Wild ([7]; 62 g ai/ha): 20 | Plant response rating, Oat, Wild ([7]; 125 g ai/ha): 25 | Plant response rating, Galium ([8]; 16 g ai/ha): 60 | Plant response rating, Galium ([8]; 31 g ai/ha): 65 | Plant response rating, Galium ([8]; 62 g ai/ha): 75 | Plant response rating, Galium ([8]; 125 g ai/ha): 100 | Plant response rating, Wheat, Spring ([9]; 16 g ai/ha): 0 | Plant response rating, Wheat, Spring ([9]; 31 g ai/ha): 5 | Plant response rating, Wheat, Spring ([9]; 62 g ai/ha): 15 | Plant response rating, Wheat, Spring ([9]; 125 g ai/ha): 35 | Plant response rating, Barley, Winter ([10]; 16 g ai/ha): 0 | Plant response rating, Barley, Winter ([10]; 31 g ai/ha): 0 | Plant response rating, Barley, Winter ([10]; 62 g ai/ha): 5 | Plant response rating, Barley, Winter ([10]; 125 g ai/ha): 40 | Plant response rating, Radish, Wild ([11]; 16 g ai/ha): 45 | Plant response rating, Radish, Wild ([11]; 31 g ai/ha): 55 | Plant response rating, Radish, Wild ([11]; 62 g ai/ha): 70 | Plant response rating, Radish, Wild ([11]; 125 g ai/ha): 80 | Plant response rating, Speedwell ([12]; 16 g ai/ha): 85 | Plant response rating, Speedwell ([12]; 31 g ai/ha): 90 | Plant response rating, Speedwell ([12]; 62 g ai/ha): 100 | Plant response rating, Speedwell ([12]; 125 g ai/ha): 100 | Plant response rating, Russian Thistle ([13]; 16 g ai/ha): 0 | Plant response rating, Russian Thistle ([13]; 31 g ai/ha): 0 | Plant response rating, Russian Thistle ([13]; 62 g ai/ha): 5 | Plant response rating, Russian Thistle ([13]; 125 g ai/ha): 5 | Plant response rating, Windgrass ([14]; 16 g ai/ha): 15 | Plant response rating, Windgrass ([14]; 31 g ai/ha): 20 | Plant response rating, Windgrass ([14]; 62 g ai/ha): 25 | Plant response rating, Windgrass ([14]; 125 g ai/ha): 70 | Plant response rating, Field Violet ([15]; 16 g ai/ha): 15 | Plant response rating, Field Violet ([15]; 31 g ai/ha): 75 | Plant response rating, Field Violet ([15]; 62 g ai/ha): 95 | Plant response rating, Field Violet ([15]; 125 g ai/ha): 95 | Plant response rating, Ryegrass, Italian ([16]; 16 g ai/ha): 10 | Plant response rating, Ryegrass, Italian ([16]; 31 g ai/ha): 15 | Plant response rating, Ryegrass, Italian ([16]; 62 g ai/ha): 25 | Plant response rating, Ryegrass, Italian ([16]; 125 g ai/ha): 65 | Plant response rating, Foxtail, Green ([17]; 16 g ai/ha): 15 | Plant response rating, Foxtail, Green ([17]; 31 g ai/ha): 35 | Plant response rating, Foxtail, Green ([17]; 62 g ai/ha): 40 | Plant response rating, Foxtail, Green ([17]; 125 g ai/ha): 40 | Plant response rating, Mustard, Wild ([18]; 16 g ai/ha): 20 | Plant response rating, Mustard, Wild ([18]; 31 g ai/ha): 30 | Plant response rating, Mustard, Wild ([18]; 62 g ai/ha): 100 | Plant response rating, Mustard, Wild ([18]; 125 g ai/ha): 100 | Plant response rating, Blackgrass ([19]; 16 g ai/ha): 5 | Plant response rating, Blackgrass ([19]; 31 g ai/ha): 20 | Plant response rating, Blackgrass ([19]; 62 g ai/ha): 35 | Plant response rating, Blackgrass ([19]; 125 g ai/ha): 55 | Plant response rating, Geranium, Cutleaf ([20]; 16 g ai/ha): 25 | Plant response rating, Geranium, Cutleaf ([20]; 31 g ai/ha): 35 | Plant response rating, Geranium, Cutleaf ([20]; 62 g ai/ha): 70 | Plant response rating, Geranium, Cutleaf ([20]; 125 g ai/ha): 100 | Plant response rating, Oat, Wild ([21]; 16 g ai/ha): 10 | Plant response rating, Oat, Wild ([21]; 31 g ai/ha): 25 | Plant response rating, Oat, Wild ([21]; 62 g ai/ha): 35 | Plant response rating, Oat, Wild ([21]; 125 g ai/ha): 45

Source: patent publication US20170190671A1, “BIS(ARYL)CATECHOL DERIVATIVES AS HERBICIDES” (E I DU PONT DE NEMOURS AND COMPANY, priority 2014, published 2017)
